Tests used:
[1] = Particle size characterisation by laser diffraction (Mastersizer 2000); assay type: physicochemical; conditions: budesonide particles; for Particle size distribution D(0.1′): diameter for the smallest particles up to 10% of the material analyzed; for Particle size distribution d(0.5)′ (mean particle size): diameter for the smallest particles up to 50% of the material analyzed; for Particle size distribution d(0.9)′: diameter for the smallest particles up to 90% of the material analyzed
Description: The terms “particle size”, “particle size diameter” and “particle size distribution” in this specification refer to values obtained as given in the Experimental Part (laser diffraction by the use of Mastersizer 2000 from Malvern Instruments Ltd, Worcestershire, United Kindom). For the meaning of “mean particle size” or “mean particle diameter” see also the Experimental Part.
A 2% w/v budesonide solution in acetone was introduced into the nozzle of FIG. 2 placed in the arrangement of FIG. 1 (except for the recycling capability) using a separate high-performance liquid chromatography pump 1.4 ml/min, together with the 125 g/min scCO2 (about 150 ml/min) which was modified with the make-up agent 4.2 ml/min acetone. The pressure in the system was 100 atm. and temperature was at 60° C. All of the streams contact within the nozzle and the budesonide powder formed and collected in the particle collecting chamber. The scCO2 and acetone was drained via the backpressure regulator outlet. Then, a further washing process was performed to eliminate the solvent mixed in the scCO2. After the washing process, the CO2 was slowly drained off from the chamber. Once the CO2 had been completely removed, the particles on the filter and on the wall were collected for analysis. The particles were characterized by laser diffraction in Mastersizer 2000 (Malvern Instruments Ltd, Worcestershire, United Kingdom).

[2] = Particle morphology and size by scanning electron microscope (TM-1000 Hitachi); assay type: physicochemical; conditions: Example 6: solvent acetone, fluid water 10 ml/min, solution 0.2 ml/min, coaxial tube nozzle (FIG. 6)
Experimental: It had two high pressure pumps (Jasco PU 980). One of the pump (624b) is used to feed the solution (0.2 ml/min Piroxicam in acetone (2% w/v)) (602) via a transport conduit (621) and the other pump (624a) is used to feed 10 ml/min water (fluid, anti-solvent) (603) via transport conduit (616) to a spray nozzle (601) placed in a particle collection chamber (605) containing at its outlet (625) a function for separating particles (filter) (615). The nozzle internal transport conduits were two stainless steel tubes (610,612) that were placed coaxially to each other with the inner one (612) connected to the pump (624b) for the solution and the outer one (610) to the pump (624a) for fluid. […] Particle sizes were determined to be less than 3 μm. […]
A high pressure pump (Thar P50) (724a) is used to feed 50 ml/min water (fluid, anti-solvent) (703) via a transport conduit (716) and a high pressure pump (Jasco PU 980) (724b) is used to feed 1 ml/min solution of Piroxicam in acetone (2% w/v) (702) via transport conduit (721) to a nozzle (701) placed in a particle collecting chamber (705) containing at its outlet (725) a particle separation function in the form of a filter cup (715). […] The morphology and size of the crystals in the filter cup is determined using TM1000 Hitachi scanning electron microscope. Particle sizes were determined to be between 0.5 μm to 2 μm. […]

CCCC1O[C@@H]2C[C@H]3[C@@H]4CCC5=CC(=O)C=C[C@]5(C)[C@H]4[C@@H](O)C[C@]3(C)[C@]2(C(=O)CO)O1 (stereo partly drawn) [Example 4, budesonide]
Spec. Surface Area [1]: 0.6 m^2/g
Particle size distribution D(0.1′) [1]: ≦6.3 μm
Particle size distribution d(0.5)′ (mean particle size) [1]: ≦14.2 μm
Particle size distribution d(0.9)′ [1]: ≦26.7 μm

CCCC1O[C@@H]2C[C@H]3[C@@H]4CCC5=CC(=O)C=C[C@]5(C)[C@H]4[C@@H](O)C[C@]3(C)[C@]2(C(=O)CO)O1 (stereo partly drawn) [Example 1, budesonide]
Spec. Surface Area [1]: 1.7 m^2/g
Particle size distribution D(0.1′) [1]: ≦1.9 μm
Particle size distribution d(0.5)′ (mean particle size) [1]: ≦4.0 μm
Particle size distribution d(0.9)′ [1]: ≦7.9 μm

CCCC1O[C@@H]2C[C@H]3[C@@H]4CCC5=CC(=O)C=C[C@]5(C)[C@H]4[C@@H](O)C[C@]3(C)[C@]2(C(=O)CO)O1 (stereo partly drawn) [Example 2, budesonide]
Spec. Surface Area [1]: 1.7 m^2/g
Particle size distribution D(0.1′) [1]: ≦1.1 μm
Particle size distribution d(0.5)′ (mean particle size) [1]: ≦1.9 μm
Particle size distribution d(0.9)′ [1]: ≦3.4 μm

CN1C(C(=O)Nc2ccccn2)=C(O)c2ccccc2S1(=O)=O [Piroxicam]
Particle sizes [2]: less than 3 μm

CCCC1O[C@@H]2C[C@H]3[C@@H]4CCC5=CC(=O)C=C[C@]5(C)[C@H]4[C@@H](O)C[C@]3(C)[C@]2(C(=O)CO)O1 (stereo partly drawn) [Example 3, budesonide]
Spec. Surface Area [1]: 1.6 m^2/g
Particle size distribution D(0.1′) [1]: ≦2.2 μm
Particle size distribution d(0.5)′ (mean particle size) [1]: ≦4.2 μm
Particle size distribution d(0.9)′ [1]: ≦8.7 μm

CCCC1O[C@@H]2C[C@H]3[C@@H]4CCC5=CC(=O)C=C[C@]5(C)[C@H]4[C@@H](O)C[C@]3(C)[C@]2(C(=O)CO)O1 (stereo partly drawn) [Example 5, budesonide]
Spec. Surface Area [1]: 1.7 m^2/g
Particle size distribution D(0.1′) [1]: ≦2.0 μm
Particle size distribution d(0.5)′ (mean particle size) [1]: ≦4.1 μm
Particle size distribution d(0.9)′ [1]: ≦7.9 μm

Reference: patent US8585942B2, “Process and arrangement for producing particles utilizing subcritical fluids” (XSpray Microparticles AB, priority 2007, dated 2013)
